The numbers were not newly measured in patent publication US20090253620A1, “METHODS AND COMPOSITIONS FOR TREATING GASTROINTESTINAL RADIOSENSITITIVITY IN A SUBJECT” (WASHINGTON UNIVERSITY IN ST. LOUIS, priority 2005, published 2009), which cites them from elsewhere.

For data set [1], the system named is intestinal mesenchymal cells. Particulars: CONV-R wt mice.
Data set [2] has as its system mice. Particulars: CONV-R wt mice.

Regarding Fgf-2: fibroblast growth factor-2, the “TBI-induced intestinal mesenchymal apoptosis” value in data set [1] was “attenuates”. Moreover, the TBI-associated mortality entry in data set [2] is reported as “decreases”.
